Reference: US20230081390A1, “INHIBITORS OF RAF KINASES” (Kinnate Biopharma Inc., priority 2019, published 2023)

molecular target: human RAF1 (Homo sapiens, UniProt P04049); assay: Protein kinase assay (33P-ATP filter binding), human RAF1, 10-dose IC50; assay type: biochemical; conditions: MEK1 (K97R) substrate 3 micromolar, ATP 10 micromolar, read-out: RAF-1 IC50
Summary of the method: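 Human RAF1 phosphorylated human MEK1 (K97R) substrate at 3 µM with 10 µM ATP (³³P), in pH 7.5 HEPES buffer with MgCl2, EGTA, Brij35, BSA, Na3VO4 and DTT. Reactions ran for 2 hr at room temperature with P81 filter capture.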

human RAF1, sequence (P04049 whole entry): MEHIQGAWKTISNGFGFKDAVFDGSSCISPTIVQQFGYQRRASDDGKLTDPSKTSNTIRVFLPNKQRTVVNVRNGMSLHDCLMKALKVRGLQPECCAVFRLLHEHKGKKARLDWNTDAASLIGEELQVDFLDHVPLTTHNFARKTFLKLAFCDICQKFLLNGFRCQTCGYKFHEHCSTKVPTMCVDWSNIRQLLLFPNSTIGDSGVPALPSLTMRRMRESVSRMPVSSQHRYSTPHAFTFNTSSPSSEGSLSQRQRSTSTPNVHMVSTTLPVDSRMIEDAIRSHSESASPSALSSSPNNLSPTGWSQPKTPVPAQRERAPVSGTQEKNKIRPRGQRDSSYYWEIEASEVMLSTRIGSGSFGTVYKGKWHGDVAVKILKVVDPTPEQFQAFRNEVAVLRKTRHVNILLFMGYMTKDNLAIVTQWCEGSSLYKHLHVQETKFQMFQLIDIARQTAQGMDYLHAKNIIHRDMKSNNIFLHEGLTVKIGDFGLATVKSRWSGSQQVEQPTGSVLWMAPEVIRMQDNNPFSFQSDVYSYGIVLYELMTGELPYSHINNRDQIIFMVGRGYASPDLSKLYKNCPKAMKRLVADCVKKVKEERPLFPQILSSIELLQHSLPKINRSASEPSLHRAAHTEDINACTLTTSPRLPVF

SMILES | IC50 [nM]
Cc1ccc(NC(=O)N2CC[C@H](OC(F)(F)F)C2)cc1-c1cc(O[C@H](C)[C@@H](C)O)nc(N2CCOCC2)c1 [Example 172, (S)-N-(3-(2-(((2R,3R)-3-hydroxybutan-2-yl)oxy)-6-morpholinopyridin-4-yl)-4-methylphenyl)-3-(trifluoromethoxy)pyrrolidine-1-carboxamide] | < 10
Cc1ccc(NC(=O)n2ccc(C(C)(C)C)c2)cc1-c1cc(OCCO)nc(N2CCOCC2)c1 [Example 173, 3-(tert-butyl)-N-(3-(2-(2-hydroxyethoxy)-6-morpholinopyridin-4-yl)-4-methylphenyl)-1H-pyrrole-1-carboxamide] | < 10
Cc1ccc(NC(=O)N2CC[C@H](OC(F)F)C2)cc1-c1cc(O[C@H](C)[C@@H](C)O)nc(N2CCOCC2)c1 [Example 174, (S)-3-(difluoromethoxy)-N-(3-(2-(((2R,3R)-3-hydroxybutan-2-yl)oxy)-6-morpholinopyridin-4-yl)-4-methylphenyl)pyrrolidine-1-carboxamide] | < 10
Cc1ccc(NC(=O)N2C[C@@H]3[C@H](C2)[C@H]3C(F)(F)F)cc1-c1cc(OCCO)nc(N2CCOCC2)c1 [Example 176, (1R,5S,6r)-N-(3-(2-(2-hydroxyethoxy)-6-morpholinopyridin-4-yl)-4-methylphenyl)-6-(trifluoromethyl)-3-azabicyclo[3.1.0]hexane-3-carboxamide] | < 10
Cc1ccc(NC(=O)N2CCC(CC(F)(F)F)C2)cc1-c1cc(OC[C@@H](O)CO)nc(N2CCOCC2)c1 (stereo partly drawn) [Example 179, N-(3-(2-((S)-2,3-dihydroxypropoxy)-6-morpholinopyridin-4-yl)-4-methylphenyl)-3-(2,2,2-trifluoroethyl)pyrrolidine-1-carboxamide] | < 10
Cc1ccc(NC(=O)N2CCC(CC(F)(F)F)C2)cc1-c1cc(OC[C@H](O)CO)nc(N2CCOCC2)c1 (stereo partly drawn) [Example 180, N-(3-(2-((R)-2,3-dihydroxypropoxy)-6-morpholinopyridin-4-yl)-4-methylphenyl)-3-(2,2,2-trifluoroethyl)pyrrolidine-1-carboxamide] | < 10
Cc1cc(F)c(NC(=O)N2CC[C@@H](CC(F)(F)F)C2)cc1-c1cc(OC[C@@H](C)O)nc(N2CCOCC2)c1 [Example 181, (S)-N-(2-fluoro-5-(2-((R)-2-hydroxypropoxy)-6-morpholinopyridin-4-yl)-4-methylphenyl)-3-(2,2,2-trifluoroethyl)pyrrolidine-1-carboxamide] | < 10
Cc1ccc(NC(=O)N2CCC(CC(F)(F)F)C2)cc1-c1cc(OC2CCOCC2)nc(N2CCOCC2)c1 (stereo not shown) [Example 187, N-(4-methyl-3-(2-morpholino-6-((tetrahydro-2H-pyran-4-yl)oxy)pyridin-4-yl)phenyl)-3-(2,2,2-trifluoroethyl)pyrrolidine-1-carboxamide] | < 10
Cc1ccc(NC(=O)N2CCC(CC(F)(F)F)C2)cc1-c1cc(O[C@H]2CCOC2)nc(N2CCOCC2)c1 (stereo partly drawn) [Example 188, N-(4-methyl-3-(2-morpholino-6-(((S)-tetrahydrofuran-3-yl)oxy)pyridin-4-yl)phenyl)-3-(2,2,2-trifluoroethyl)pyrrolidine-1-carboxamide] | < 10
Cc1ccc(NC(=O)N2CCC(CC(F)(F)F)C2)cc1-c1cc(OCCCO)nc(N2CCOCC2)c1 (stereo not shown) [Example 189, N-(3-(2-(3-hydroxypropoxy)-6-morpholinopyridin-4-yl)-4-methylphenyl)-3-(2,2,2-trifluoroethyl)pyrrolidine-1-carboxamide] | < 10
Cc1ccc(NC(=O)N2CCC(CC(F)(F)F)C2)cc1-c1cc(OC2CCN(C)CC2)nc(N2CCOCC2)c1 (stereo not shown) [Example 190, N-(4-methyl-3-(2-((1-methylpiperidin-4-yl)oxy)-6-morpholinopyridin-4-yl)phenyl)-3-(2,2,2-trifluoroethyl)pyrrolidine-1-carboxamide] | < 10
Cc1ccc(NC(=O)N2CCC(CC(F)(F)F)C2)cc1-c1cc(O[C@H]2CCN(C)C2)nc(N2CCOCC2)c1 (stereo partly drawn) [Example 195, N-(4-methyl-3-(2-(((S)-1-methylpyrrolidin-3-yl)oxy)-6-morpholinopyridin-4-yl)phenyl)-3-(2,2,2-trifluoroethyl)pyrrolidine-1-carboxamide] | < 10
Cc1ccc(NC(=O)N2CCC(CC(F)(F)F)C2)cc1-c1cc(OCC(C)(C)CO)nc(N2CCOCC2)c1 (stereo not shown) [Example 196, N-(3-(2-(3-hydroxy-2,2-dimethylpropoxy)-6-morpholinopyridin-4-yl)-4-methylphenyl)-3-(2,2,2-trifluoroethyl)pyrrolidine-1-carboxamide] | < 10
Cc1ccc(NC(=O)N2CCC(CC(F)(F)F)C2)cc1-c1cc(OCC(C)CO)nc(N2CCOCC2)c1 (stereo not shown) [Example 199, N-(3-(2-(3-hydroxy-2-methylpropoxy)-6-morpholinopyridin-4-yl)-4-methylphenyl)-3-(2,2,2-trifluoroethyl)pyrrolidine-1-carboxamide] | < 10
Cc1ccc(NC(=O)N2CCC(CC(F)(F)F)C2)cc1-c1cc(O[C@@H]2CCOC2)nc(N2CCOCC2)c1 (stereo partly drawn) [Example 200, N-(4-methyl-3-(2-morpholino-6-(((R)-tetrahydrofuran-3-yl)oxy)pyridin-4-yl)phenyl)-3-(2,2,2-trifluoroethyl)pyrrolidine-1-carboxamide] | < 10
Cc1ccc(NC(=O)N2CCC(CC(F)(F)F)C2)cc1-c1cc(O[C@H]2CCNC2)nc(N2CCOCC2)c1 (stereo partly drawn) [Example 201, N-(4-methyl-3-(2-morpholino-6-((S)-pyrrolidin-3-yloxy)pyridin-4-yl)phenyl)-3-(2,2,2,- trifluoroethyl)pyrrolidine-1-carboxamide] | < 10
Cc1ccc(NC(=O)N2CCC(CC(F)(F)F)C2)cc1-c1cc(O[C@@H]2CCN(C)C2)nc(N2CCOCC2)c1 (stereo partly drawn) [Example 202, N-(4-methyl-3-(2-(((R)-1-methylpyrrolidin-3-yl)oxy)-6-morpholinopyridin-4-yl)phenyl)-3-(2,2,2-trifluoroethyl)pyrrolidine-1-carboxamide] | < 10
Cc1ccc(NC(=O)N2CCC(CC(F)(F)F)C2)cc1-c1cc(O[C@@H]2CCNC2)nc(N2CCOCC2)c1 (stereo partly drawn) [Example 203, N-(4-methyl-3-(2-morpholino-6-((R)-pyrrolidin-3-yloxy)pyridin-4-yl)phenyl)-3-(2,2,2-trifluoroethyl)pyrrolidine-1-carboxamide] | < 10
Cc1ccc(NC(=O)N2CC[C@@H](CC(F)(F)F)C2)cc1-c1cc(OC2CNC2)nc(N2CCOCC2)c1 [Example 204, (S)-N-(3-(2-(azetidin-3-yloxy)-6-morpholinopyridin-4-yl)-4-methylphenyl)-3-(2,2,2-trifluoroethyl)pyrrolidine-1-carboxamide] | < 10
Cc1ccc(NC(=O)N2CC[C@@H](OC(F)(F)F)C2)cc1-c1cc(OC2CNC2)nc(N2CCOCC2)c1 [Example 205, (R)-N-(3-(2-(azetidin-3-yloxy)-6-morpholinopyridin-4-yl)-4-methylphenyl)-3-(trifluoromethoxy)pyrrolidine-1-carboxamide] | < 10
Cc1ccc(NC(=O)N2CC[C@@H](CC(F)(F)F)C2)cc1-c1cc(OC2CC(O)C2)nc(N2CCOCC2)c1 (stereo partly drawn) [Example 206, (3S)-N-[3-[2-(3-hydroxycyclobutoxy)-6-(morpholin-4-yl)pyridin-4-yl]-4-methylphenyl]-3-(2,2,2-trifluoroethyl)pyrrolidine-1-carboxamide] | < 10
Cc1ccc(NC(=O)N2CC[C@@H](CC(F)(F)F)C2)cc1-c1cc(O[C@H]2CC[C@H](O)C2)nc(N2CCOCC2)c1 [Example 207, (3S)-N-[3-(2-[[(1S,3S)-3-hydroxycyclopentyl]oxy]-6-(morpholin-4-yl)pyridin-4-yl)-4-methylphenyl]-3-(2,2,2-trifluoroethyl)pyrrolidine-1-carboxamide] | < 10
Cc1ccc(NC(=O)N2CC[C@@H](CC(F)(F)F)C2)cc1-c1cc(O[C@@H]2CC[C@@H](O)C2)nc(N2CCOCC2)c1 [Example 208, (3S)-N-[3-(2-[[(1R,3R)-3-hydroxycyclopentyl]oxy]-6-(morpholin-4-yl)pyridin-4-yl)-4-methylphenyl]-3-(2,2,2-trifluoroethyl)pyrrolidine-1-carboxamide] | < 10
Cc1ccc(NC(=O)N2CC[C@@H](CC(F)(F)F)C2)cc1-c1cc(O[C@H]2CC[C@@H](O)C2)nc(N2CCOCC2)c1 [Example 209, (3S)-N-[3-(2-[[(1S,3R)-3-hydroxycyclopentyl]oxy]-6-(morpholin-4-yl)pyridin-4-yl)-4-methylphenyl]-3-(2,2,2-trifluoroethyl)pyrrolidine-1-carboxamide] | < 10
Cc1ccc(NC(=O)N2CC[C@@H](CC(F)(F)F)C2)cc1-c1cc(O[C@@H]2CC[C@H](O)C2)nc(N2CCOCC2)c1 [Example 210, (3S)-N-[3-(2-[[(1R,3S)-3-hydroxycyclopentyl]oxy]-6-(morpholin-4-yl)pyridin-4-yl)-4-methylphenyl]-3-(2,2,2-trifluoroethyl)pyrrolidine-1-carboxamide] | < 10
Cc1ccc(NC(=O)N2CC[C@@H](CC(F)(F)F)C2)cc1-c1cc(OC2CCC(C)(O)CC2)nc(N2CCOCC2)c1 (stereo partly drawn) [Example 211, (3S)-N-(3-[2-[(4-hydroxy-4-methylcyclohexyl)oxy]-6-(morpholin-4-yl)pyridin-4-yl]-4-methylphenyl)-3-(2,2,2-trifluoroethyl)pyrrolidine-1-carboxamide (cis)] | < 10
Cc1ccc(NC(=O)N2CC[C@@H](CC(F)(F)F)C2)cc1-c1cc(OC2CCC(C)(O)CC2)nc(N2CCOCC2)c1 (stereo partly drawn) [Example 212, (3S)-N-(3-[2-[(4-hydroxy-4-methylcyclohexyl)oxy]-6-(morpholin-4-yl)pyridin-4-yl]-4-methylphenyl)-3-(2,2,2-trifluoroethyl)pyrrolidine-1-carboxamide (trans)] | < 10
Cc1ccc(NC(=O)N2CC[C@@H](OC(F)(F)F)C2)cc1-c1cc(OC[C@H](C)O)nc(N2CCOCC2)c1 [Example 213, (3R)-N-(3-[2-[(2S)-2-hydroxypropoxy]-6-(morpholin-4-yl)pyridin-4-yl]-4-methylphenyl)-3-(trifluoromethoxy)pyrrolidine-1-carboxamide] | < 10
